We go through 2 compounds from patent EP0813412B1, “GEL FOR THE LOCAL HORMONOTHERAPY OF VAGINAL DRYNESS” (priority 1995, dated 1997).

Data set [1] concerns récepteurs à haute affinité pour l'estradiol au niveau de l'épithélium vaginal. The settings on record: estrogen receptors; cited from earlier work.
Data set [2] in a line: Clinical trial, repeated vaginal application for 13 days: clinical and biological tolerance. The format is in vivo, femme. Particulars: 10 µg vaginal, repeated for 13 days. The text has this:
Ces événements d'intensité mineure n'ont pas empêché la poursuite de l'étude. La tolérance biologique a été excellente. Aucune anomalie ayant une signification clinique n'a été rapportée.

Data set [3] is classed as in vivo, femme. As to the method:
Une première solution consiste à réduire la teneur en principe actif, typiquement à des doses de 5 µg ou même 2,5 µg par application unitaire.

Setting [4] is: 10 µg, free micronised form in gel, single dose.

With `C[C@]12CC[C@@H]3c4ccc(O)cc4CC[C@H]3[C@@H]1C[C@@H](O)[C@@H]2O` [estriol], the “activity profile (agonist / antagonist)” value in data set [1] is on record as “agoniste partiel, voire d'antagoniste”.

As for `C[C@]12CC[C@@H]3c4ccc(O)cc4CC[C@H]3[C@@H]1CC[C@@H]2O` [17β-estradiol], the tolérance biologique result in data set [2] was “excellente”. Further, in data set [2] (sixteen subjects, free micronised form in gel), the tolérance clinique result was “excellente pour treize sujets sur seize”. Besides, the “effets indésirables (céphalées, épisodes de vomissements et bouffées de chaleur)” value in data set [2] (sixteen subjects, minor intensity) is listed as “Trois sujets ont signalé des effets indésirables”. Also, the “surface sous la courbe” value in data set [3] (10 µg vaginal gel, steady state) was “comparable à celle obtenue après la première application”. For the same compound, the “pic plasmatique d'estradiol” value in data set [3] (10 µg vaginal gel, steady state compared with first application) was “tend à être plus faible et retardé”. In data set [3] (setting [4]), the “concentration plasmatique maximale du pic” value is listed as “du même ordre que le taux physiologique moyen observés la première semaine de la phase folliculaire chez la femme fertile” and the “time of the plasma peak (pic plasmatique)” value is given as “une heure environ”.
